# Measured values as given in patent US11299453B2 (Universität zu Köln, priority 2017, dated 2022).
# What was measured:
# [1] = test system: murine αPIG-AT25 iPSCs, αPIG44-D3 ESCs and R1 ESCs; experiment: Cell viability (PrestoBlue), results pooled over murine PSC lines; type: cell-based; details: 40 μM, 72 h
# From the text: (§1) The transgenic murine induced pluripotent stem cell (miPSC) line αPIG-AT25 was generated from the miPSC line TiB7.4 as described in Fatima A et al., Stem Cell Res. 2016 Sep.; 17(2):266-272. The murine embryonic stem cell (ESC) line αPIG44-D3 was equally derived from D3 ESC line. Both transgenic mPSC lines express the IRES-linked genes encoding puromycin N-acetyl-aminotransferase (PAC) and enhanced green fluorescent protein (eGFP) which are under the control of cardiac alpha myosin heavy chain (α-MHC) promoter. They were cultured on mitomycin-inactivated mouse embryonic fibroblasts (MEF) in maintenance medium composed of Dulbecco's minimal essential medium (DMEM) with GlutaMAX (Life Technologies, Carlsbad, USA) supplemented with 15% fetal bovine serum (FBS, Sigma-Aldrich, St. Louis, USA), 1× non-essential amino acids (NEEA, Life Technologies), 50 μM β-mercaptoethanol (β-ME, Life Technologies) and 1000 U/ml of murine leukemia inhibitory factor (mLIF, ORF Genetics, Kopavogur, Iceland). Cell passaging was performed every 2-3 days by dissociating the cells with 0.05% trypsin-EDTA (Life Technologies) and seeding 1-2×10^4 cells/cm^2. The wild type mESC line R1 was cultured on cell culture plates coated with 0.1% gelatin (Sigma-Aldrich) and maintained like the transgenic mPSCs.
# (§2) Serial dilutions of DMSO stock solutions of PluriSIn #1 (Sigma-Aldrich, catalog number SML0682) or one of small molecules SM1-SM10, were prepared from 20 mM stock solutions with cell culture medium. Murine PSCs were dissociated with 0.05% trypsin-EDTA, seeded on 0.1% gelatin-coated 96-well plates with a density of 5000 cells/well and cultured in maintenance medium supplemented with 1000 U/ml of mLIF. After 1 day, cells were incubated with 40 μM PluriSIn #1 and derivatives for 72 h or with 0.01-25 μM SMs for 48 h, respectively. For treatment of corresponding PSC-derived CMs with SMs, puromycin-selected miPSC-CMs from day 14 of differentiation were dissociated with 0.25% trypsin-EDTA as described above and plated on 96-well plates (5×10^4 cells/well) which were pre-coated with 5 μg/ml fibronectin (PromoCell, Heidelberg, Germany). After culturing miPSC-CMs with 8 μg/ml puromycin for 2 more days, they were incubated in differentiation medium supplemented with 0.1-100 μM of SMs for 48-72 h. Following small molecule treatment, cell viability was determined with PrestoBlue cell viability reagent (Life Technologies). To this end, cells were washed with PBS (with calcium and magnesium, Life Technologies) and incubated with PrestoBlue reagent diluted in cell culture medium for 40 min at 37° C.
# (§3) Fluorescence intensities correlating with the number of viable cells in the wells were measured in black flat-bottom 96-well plates (Greiner Bio-One, Kremsmünster, Austria) with a GeniosPro microplate reader (Tecan, Männedorf, Schweiz).
# To confirm the cytotoxicity of the compounds to PSCs, toxicity test were also run with murine ESC lines αPIG44-D3 and R1, and for comparison with αPIG-AT25 murine iPSC line. The cells were incubated for 48 h with compounds SM1, SM2, SM4, SM5, SM6 and SM8 in concentrations of 0.01 μM and 10 μM. Cell culture was performed as described above. Experiments were run in quadruplicate and negative and positive control cells were treated with 0.05% DMSO or 8 μg/ml puromycin, respectively. Cell viability was determined using PrestoBlue cell viability reagent.
# Murine αPIG-AT25 iPSCs, αPIG44-D3 ESCs and R1 ESCs were incubated with 40 μM PluriSIn #1 (Sigma-Aldrich, catalog number SML0682) for 72 h. Cell culture was performed as described above for determination of the compounds. Experiments were run in quadruplicate and negative and positive control cells were treated with 0.08% DMSO or 8 μg/ml puromycin, respectively. The cell viability was determined using PrestoBlue cell viability reagent. […]
# [2] = test system: human pluripotent stem cells; details: exposure for 48 hours; cited from earlier work
# [3] = test system: teratoma formation; details: after transplanting 1 million cells into immunodeficient mice; cited from earlier work
# [4] = test system: murine αPIG-AT25 iPSCs; experiment: Cell viability (PrestoBlue) of murine iPSCs after compound treatment; type: cell-based; details: 48 h; for toxicity to miPSCs (in words): 0.1-25 μM; for concentration dependence of effect on miPSC viability: 0.1, 1, 10 and 25 μM
# From the text: as §1, §2, §3
# IC50 values were determined by regression analysis of dose-response curves upon logarithmic transformation. Microscopic images of PSCs were taken with a Zeiss Axiovert 100 inverted microscope and GFP images of CMs were captured with a Zeiss Axiovert 200M fluorescence microscope (both Carl Zeiss, Oberkochen, Germany) and analyzed with Zeiss Axiovision 4.5 software (Carl Zeiss).
# The cytotoxicity of the compounds according to formulas SM1 to SM10 to pluripotent stem cells (PSCs) was determined in a population of murine αPIG-AT25 iPSCs, which were incubated for 48 h with compounds SM1 to SM10 in concentrations of 0.1 μM, 1 μM, 10 μM and 25 μM. Cell culture was performed as described above. Experiments were run in quadruplicate and negative and positive control cells were treated with 0.125% DMSO or 8 μg/ml puromycin, respectively. The cell viability was determined using PrestoBlue cell viability reagent. […]
# [5] = test system: human neural progenitor cells derived from the human iPSC line Royan-hiPSC4; experiment: Cell viability (PrestoBlue) of human iPSC-derived neural progenitor cells; type: cell-based; details: 1 μM, 72 h of treatment
# Procedure: To confirm the cytotoxicity of the compounds to PSCs, toxicity tests were also run with human neural progenitor cells (passage 20) derived from the human iPSC line Royan-hiPSC4 (RSCB0082). The cells were incubated for 24 h, 48 h and 72 h with compounds SM20, SM21, SM22 and SM23 in concentrations of 1 μM, 3 μM, 10 μM and 25 μM. Cell culture was performed as described above except that Koch medium was used. Experiments were run in quadruplicate and negative and positive control cells were treated with 0.001% DMSO or 0.1 μM, 1 μM, 10 μM and 25 μM of SM6, respectively. Cell viability was determined using PrestoBlue cell viability reagent.
# [6] = test system: murine αPIG-AT25 iPSC-CM monolayers
compound,measurement,setting,value
O=C(NNc1ccccc1)c1ccncc1 [PluriSIn #1],"reduction of cell viability, on average over the three murine PSC lines",[1],51.32±10.86%
same,removal of human pluripotent stem cells from the culture,[2],successfully removed human pluripotent stem cells from the culture
same,teratoma formation,[3],prevented teratoma formation
"CN(Cc1cccc(-c2ccccc2)c1O)[C@@H]1CCCC[C@H]1N(C)Cc1cccc(-c2ccccc2)c1O [SM3, (1R,2R)-N,N′-dimethyl-N,N′-di[(2-hydroxy-3-phenyl)-benzyl]-1,2-diaminocyclohexane]",toxicity to miPSCs (in words),[4],did not
"CC(C)(C)c1cc(C(=O)N[C@@H]2CCCC[C@H]2NC(=O)c2cc(C(C)(C)C)cc(C(C)(C)C)c2O)c(O)c(C(C)(C)C)c1 [SM7, (1R,2R)-N,N′-di[(2-hydroxy-3,5-di-tert.- butyl)benzoyl]-1,2-diaminocyclohexane]",toxicity to miPSCs (in words),[4],did not
"CN(Cc1cc(C(C)(C)C)cc(C(C)(C)C)c1O)[C@@H]1CCCC[C@H]1N(C)Cc1cc(C(C)(C)C)cc(C(C)(C)C)c1O [SM9, (1R,2R)-N,N′-dimethyl-N,N′-di[(2-hydroxy-3,5-di-tert.- butyl)benzyl]-1,2-diaminocyclohexane]",concentration dependence of effect on miPSC viability,[4],did not show a concentration dependent effect
same,toxicity to miPSCs (in words),[4],did not
"CC(C)(C)c1cc(CN[C@@H]2CCCC[C@H]2NCc2cc(C(C)(C)C)cc(C(C)(C)C)c2O)c(O)c(C(C)(C)C)c1 [SM10, (1R,2R)-N,N′-di[(2-hydroxy-3,5-di-tert.- butyl)benzyl]-1,2-diaminocyclohexane]",concentration dependence of effect on miPSC viability,[4],did not show a concentration dependent effect
same,toxicity to miPSCs (in words),[4],did not
"Oc1c(CN[C@@H]2CCCC[C@H]2NCc2cccc(-c3c(F)c(F)c(F)c(F)c3F)c2O)cccc1-c1c(F)c(F)c(F)c(F)c1F [SM20, (1R,2R)-N,N′-di[(2-hydroxy-3-penta-fluorophenyl)-benzyl]-1,2-diaminocyclohexane]",toxicity to miPSCs (in words),[4],good toxicity
same,NPCs killed,[5],eliminated all cells
"c1ccc2[nH]c(CN[C@@H]3CCCC[C@H]3NCc3cc4ccccc4[nH]3)cc2c1 [SM21, (1R,2R)-N,N′-di[(2-indolyl)methyl]-1,2-diaminocyclohexane]",toxicity to miPSCs (in words),[4],good toxicity
"Oc1c(CN[C@@H]2CCCC[C@H]2NCc2cccc(-c3cccs3)c2O)cccc1-c1cccs1 [SM23, (1R,2R)-N,N′-di([2-hydroxy-3-(2-thienyl)]-benzyl)-1,2-diaminocyclohexane]",toxicity to miPSCs (in words),[4],good toxicity
same,NPCs killed,[5],eliminated all cells
N.N.[Cl][Pt][Cl] [cisplatin],apoptotic CMs (cleaved caspase-3 staining),[6],presence of apoptotic CMs
same,sarcomere structure (α-actinin staining),[6],degradation of the sarcomere structure
